Measurements as given in ChEMBL document CHEMBL1136781, “Comparison of in vitro P-glycoprotein screening assays: recommendations for their use in drug discovery” (J Med Chem, 2003).

What was measured:
[1] = Partition coefficient (logP); format: physicochemical; conditions: octanol/water
[2] = target: T1, ATP-dependent translocase ABCB1 (Mus musculus, UniProt P06795); assay: Inhibition of P-glycoprotein, mouse L-mdr1b expressed in LLC-PK1 epithelial cells using calcein-AM polarisation assay; format: functional, cell-based
T1 sequence (P06795 whole entry): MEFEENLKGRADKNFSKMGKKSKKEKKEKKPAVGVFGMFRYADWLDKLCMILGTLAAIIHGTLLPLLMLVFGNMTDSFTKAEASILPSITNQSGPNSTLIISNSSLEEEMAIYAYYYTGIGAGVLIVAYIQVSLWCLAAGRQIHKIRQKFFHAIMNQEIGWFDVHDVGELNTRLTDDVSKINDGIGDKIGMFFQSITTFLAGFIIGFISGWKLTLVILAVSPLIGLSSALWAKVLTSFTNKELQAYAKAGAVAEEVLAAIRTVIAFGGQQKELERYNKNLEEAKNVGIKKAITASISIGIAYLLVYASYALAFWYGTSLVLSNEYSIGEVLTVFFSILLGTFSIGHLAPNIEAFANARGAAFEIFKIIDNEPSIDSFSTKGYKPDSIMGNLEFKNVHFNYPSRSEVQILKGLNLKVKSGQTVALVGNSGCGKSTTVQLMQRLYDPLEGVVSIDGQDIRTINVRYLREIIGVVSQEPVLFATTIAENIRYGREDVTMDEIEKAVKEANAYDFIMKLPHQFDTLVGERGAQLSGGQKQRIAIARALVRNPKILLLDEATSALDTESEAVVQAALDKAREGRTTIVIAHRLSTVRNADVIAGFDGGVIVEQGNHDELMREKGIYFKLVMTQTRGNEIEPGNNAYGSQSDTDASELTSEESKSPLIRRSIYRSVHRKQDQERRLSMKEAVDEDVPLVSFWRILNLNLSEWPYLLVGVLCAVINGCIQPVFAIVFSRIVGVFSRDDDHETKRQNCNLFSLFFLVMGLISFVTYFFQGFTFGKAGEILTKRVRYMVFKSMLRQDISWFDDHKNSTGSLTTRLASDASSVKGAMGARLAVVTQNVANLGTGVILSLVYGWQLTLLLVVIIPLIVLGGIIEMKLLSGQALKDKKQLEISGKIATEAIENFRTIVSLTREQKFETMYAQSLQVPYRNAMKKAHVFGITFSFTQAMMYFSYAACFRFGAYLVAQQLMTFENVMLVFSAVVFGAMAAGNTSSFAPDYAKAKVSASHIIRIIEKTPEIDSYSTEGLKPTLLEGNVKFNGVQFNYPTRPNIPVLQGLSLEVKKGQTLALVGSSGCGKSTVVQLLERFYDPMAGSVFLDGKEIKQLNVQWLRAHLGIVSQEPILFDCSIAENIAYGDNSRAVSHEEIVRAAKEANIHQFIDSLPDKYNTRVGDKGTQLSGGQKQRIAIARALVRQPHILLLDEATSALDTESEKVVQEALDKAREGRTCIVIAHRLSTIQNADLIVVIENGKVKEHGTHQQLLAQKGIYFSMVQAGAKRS

[3] = target: T2, ATP-dependent translocase ABCB1 (Homo sapiens, UniProt P08183); assay: Inhibition of P-gp was determined using rhodamine-assay in human CaCo-2 cells; format: functional, cell-based; parameters: concentration or dose not given beside the values
Target sequence in this assay (P08183 whole entry): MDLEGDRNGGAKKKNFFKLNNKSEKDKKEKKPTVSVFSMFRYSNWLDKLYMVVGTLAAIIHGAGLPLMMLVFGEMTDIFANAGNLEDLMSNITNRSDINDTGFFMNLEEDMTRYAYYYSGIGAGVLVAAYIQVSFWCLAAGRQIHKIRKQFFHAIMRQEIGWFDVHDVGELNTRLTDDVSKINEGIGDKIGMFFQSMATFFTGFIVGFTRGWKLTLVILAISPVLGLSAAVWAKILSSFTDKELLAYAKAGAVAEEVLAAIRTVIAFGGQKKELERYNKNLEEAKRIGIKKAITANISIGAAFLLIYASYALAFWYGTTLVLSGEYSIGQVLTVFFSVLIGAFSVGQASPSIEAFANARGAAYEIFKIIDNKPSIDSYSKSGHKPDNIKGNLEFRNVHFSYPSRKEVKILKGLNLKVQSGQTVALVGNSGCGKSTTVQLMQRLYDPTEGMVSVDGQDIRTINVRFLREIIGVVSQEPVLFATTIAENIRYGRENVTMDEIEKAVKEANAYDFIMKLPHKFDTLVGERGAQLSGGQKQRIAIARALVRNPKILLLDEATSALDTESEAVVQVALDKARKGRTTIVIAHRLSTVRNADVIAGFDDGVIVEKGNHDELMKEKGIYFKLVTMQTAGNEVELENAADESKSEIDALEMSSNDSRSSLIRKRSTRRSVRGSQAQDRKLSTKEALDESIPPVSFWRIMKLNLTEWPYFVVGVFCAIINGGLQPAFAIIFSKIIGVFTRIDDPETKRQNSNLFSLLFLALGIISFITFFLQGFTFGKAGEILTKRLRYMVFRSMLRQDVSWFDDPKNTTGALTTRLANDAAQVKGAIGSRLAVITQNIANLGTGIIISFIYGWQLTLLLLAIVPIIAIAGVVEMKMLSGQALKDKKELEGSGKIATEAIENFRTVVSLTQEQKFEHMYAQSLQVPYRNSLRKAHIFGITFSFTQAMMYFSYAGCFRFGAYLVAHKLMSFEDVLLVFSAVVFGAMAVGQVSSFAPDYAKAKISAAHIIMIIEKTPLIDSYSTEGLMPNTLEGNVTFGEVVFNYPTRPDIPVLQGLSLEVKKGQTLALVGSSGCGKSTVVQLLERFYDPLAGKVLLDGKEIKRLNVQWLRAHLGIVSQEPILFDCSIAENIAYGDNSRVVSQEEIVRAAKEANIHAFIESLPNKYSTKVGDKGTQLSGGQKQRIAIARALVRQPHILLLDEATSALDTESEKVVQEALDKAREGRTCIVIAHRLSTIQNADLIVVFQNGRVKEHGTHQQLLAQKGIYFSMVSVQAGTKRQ

[4] = target: T2, ATP-dependent translocase ABCB1; assay: Inhibition of P-glycoprotein using ATPase in MDR1 membranes; format: functional, cell membranes
Target sequence in this assay (P08183 whole entry): as above

[5] = target: T2, ATP-dependent translocase ABCB1; assay: TP_TRANSPORTER: inhibition of Rhodamine 123 efflux in Caco-2 cells; format: functional, cell-based; parameters: concentration or dose not given beside the values; scale not given: the % may be the effect or the level left
Target sequence in this assay (P08183 whole entry): as above

[6] = target: T1, ATP-dependent translocase ABCB1; assay: TP_TRANSPORTER: inhibition of Calcein-AM efflux in Mdr1b-expressing LLC-PK1 cells; format: functional, cell-based
[7] = target: T3, ATP-dependent translocase ABCB1 (Mus musculus, UniProt P21447); assay: P-gp activity was measured by a direct transport assay, using polarized LLC-PK1 epithelial cells; format: functional, cell-based; conditions: human
T3 sequence (P21447 whole entry): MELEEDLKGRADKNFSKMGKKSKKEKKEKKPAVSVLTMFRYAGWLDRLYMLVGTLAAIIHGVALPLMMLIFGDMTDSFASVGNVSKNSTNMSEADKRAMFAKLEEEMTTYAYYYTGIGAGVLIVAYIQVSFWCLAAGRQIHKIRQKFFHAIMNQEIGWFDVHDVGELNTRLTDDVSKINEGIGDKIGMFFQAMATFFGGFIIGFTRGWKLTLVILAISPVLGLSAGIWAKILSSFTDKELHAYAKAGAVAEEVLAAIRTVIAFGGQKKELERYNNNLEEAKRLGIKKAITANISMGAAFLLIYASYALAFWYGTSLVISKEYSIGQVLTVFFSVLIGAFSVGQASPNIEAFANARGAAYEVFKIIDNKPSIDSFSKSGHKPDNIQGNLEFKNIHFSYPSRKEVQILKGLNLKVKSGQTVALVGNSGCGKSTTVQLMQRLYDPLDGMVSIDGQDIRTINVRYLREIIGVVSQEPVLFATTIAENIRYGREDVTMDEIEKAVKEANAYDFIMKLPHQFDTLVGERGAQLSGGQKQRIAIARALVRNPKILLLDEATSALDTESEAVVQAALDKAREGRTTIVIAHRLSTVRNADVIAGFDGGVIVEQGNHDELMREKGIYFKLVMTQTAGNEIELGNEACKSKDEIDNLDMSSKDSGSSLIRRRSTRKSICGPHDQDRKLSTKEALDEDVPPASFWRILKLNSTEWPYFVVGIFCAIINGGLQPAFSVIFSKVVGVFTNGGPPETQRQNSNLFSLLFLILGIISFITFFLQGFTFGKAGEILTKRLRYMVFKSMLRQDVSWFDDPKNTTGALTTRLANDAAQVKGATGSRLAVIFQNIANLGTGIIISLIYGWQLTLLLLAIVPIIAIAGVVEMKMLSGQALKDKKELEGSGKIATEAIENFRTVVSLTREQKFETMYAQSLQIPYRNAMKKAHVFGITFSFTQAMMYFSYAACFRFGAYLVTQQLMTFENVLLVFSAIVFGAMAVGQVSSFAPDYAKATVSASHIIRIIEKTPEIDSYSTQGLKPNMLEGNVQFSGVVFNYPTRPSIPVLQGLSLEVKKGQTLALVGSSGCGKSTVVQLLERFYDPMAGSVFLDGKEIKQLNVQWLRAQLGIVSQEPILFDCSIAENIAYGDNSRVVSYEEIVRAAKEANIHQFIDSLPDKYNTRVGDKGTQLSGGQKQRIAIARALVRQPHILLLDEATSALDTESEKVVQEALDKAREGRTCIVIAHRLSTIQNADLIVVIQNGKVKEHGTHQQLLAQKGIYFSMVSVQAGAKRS

[8] = target: T3, ATP-dependent translocase ABCB1; assay: P-gp activity was measured by a direct transport assay, using polarized LLC-mdr1a epithelial cells; format: functional, cell-based; conditions: human, epithelial cell
[9] = target: T3, ATP-dependent translocase ABCB1; assay: Inhibition of P-glycoprotein, mouse L-mdr1a expressed in LLC-PK1 epithelial cells using calcein-AM polarisation assay; format: functional, cell-based
[10] = target: T3, ATP-dependent translocase ABCB1; assay: TP_TRANSPORTER: inhibition of Calcein-AM efflux in Mdr1a-expressing LLC-PK1 cells; format: functional, cell-based
Cytochrome P450 3A4 [11] = target: T4, Cytochrome P450 3A4 (Homo sapiens, UniProt P08684)
T4 sequence (P08684 whole entry): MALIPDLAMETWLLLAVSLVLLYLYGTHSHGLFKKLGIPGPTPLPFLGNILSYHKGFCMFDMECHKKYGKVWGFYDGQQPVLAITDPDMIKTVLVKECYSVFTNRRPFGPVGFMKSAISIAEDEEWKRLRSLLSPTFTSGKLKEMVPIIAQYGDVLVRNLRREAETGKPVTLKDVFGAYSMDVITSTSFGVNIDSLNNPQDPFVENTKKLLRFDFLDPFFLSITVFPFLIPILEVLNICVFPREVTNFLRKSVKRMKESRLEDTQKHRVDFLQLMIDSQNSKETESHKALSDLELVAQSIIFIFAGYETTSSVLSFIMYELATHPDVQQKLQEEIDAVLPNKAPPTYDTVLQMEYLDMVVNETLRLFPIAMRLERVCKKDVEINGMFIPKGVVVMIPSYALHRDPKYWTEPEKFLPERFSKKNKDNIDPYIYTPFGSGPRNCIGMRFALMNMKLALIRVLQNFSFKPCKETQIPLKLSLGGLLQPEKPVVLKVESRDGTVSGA
Description: Inhibition of human cytochrome P450 3A4

[12] = target: T2, ATP-dependent translocase ABCB1; assay: P-gp activity was measured by a direct transport assay, using polarized LLC-MDR1 epithelial cells; conditions: epithelial cell
[13] = target: T2, ATP-dependent translocase ABCB1; assay: Inhibition of P-glycoprotein, human L-MDR1 expressed in LLC-PK1 epithelial cells using calcein-AM polarisation assay; format: functional, cell-based
Target sequence in this assay (P08183 whole entry): as the sequence (P08183 whole entry) above

[14] = target: T2, ATP-dependent translocase ABCB1; assay: TP_TRANSPORTER: inhibition of Calcein-AM efflux in MDR1-expressing LLC-PK1 cells; format: functional, cell-based
Target sequence in this assay (P08183 whole entry): as above

Cytochrome P450 3A4 [15] = target: T4, Cytochrome P450 3A4; remark: listed apart in the source
Description: Inhibition of human cytochrome P450 3A4

| Compound | logP ([1]; read-out: logP) | IC50 [2] [µM] | Inhibition [3] [%] | Activity [4] [nmol/min/mg] | Activity [5] [%] | IC50 [6] [µM] | IC50 [9] [µM] | IC50 [10] [µM] | also measured |
| --- | --- | --- | --- | --- | --- | --- | --- | --- | --- |
| CC(C)(C)NC(=O)[C@@H]1C[C@@H]2CCCC[C@@H]2CN1C[C@@H](O)[C@H](Cc1ccccc1)NC(=O)[C@H](CC(N)=O)NC(=O)c1ccc2ccccc2n1 | 4.7 | > 50 | 43 | 30 | 43 | > 50 | – | – | – |
| CC1(C)SSC(C)(C)[C@@H](NC(=O)[C@@H](N)Cc2ccc(O)cc2)C(=O)NCC(=O)N[C@@H](Cc2ccccc2)C(=O)N[C@H]1C(=O)O | 1 | > 50 | 0 | 4 | 0 | > 50 | > 50 | > 50 | Ratio [7]: 0.8; Ratio [8]: 0.9; IC50 (Cytochrome P450 3A4 [11]): > 50 µM; Ratio [12]: 0.6 |
| Cc1c(O)cccc1C(=O)N[C@@H](CSc1ccccc1)[C@H](O)CN1C[C@H]2CCCC[C@H]2C[C@H]1C(=O)NC(C)(C)C | – | – | 30 | 6.2 | 30 | – | 2.3 | 2.3 | logP [1]: 5.8 |
| COc1ccc(CCN2CCC(Nc3nc4ccccc4n3Cc3ccc(F)cc3)CC2)cc1 [ASTEMIZOLE] | 5.7 | 1.7 | 39 | 18 | 39 | 1.7 | 1.3 | 1.3 | – |
| CN/C(=N/CCSCc1nc[nH]c1C)NC#N [CIMETIDINE] | – | > 50 | 4 | 2.8 | 4 | > 50 | – | – | – |
| Clc1ccccc1C(c1ccccc1)(c1ccccc1)n1ccnc1 [CLOTRIMAZOLE] | 5.3 | 3.5 | 29 | 7.5 | 29 | 3.5 | 4.8 | 4.8 | – |
| COc1cc2c(c(OC)c1OC)-c1ccc(OC)c(=O)cc1[C@@H](NC(C)=O)CC2 [COLCHICINE] | – | > 50 | 8 | 0.1 | 8 | > 50 | > 50 | > 50 | IC50 [13]: > 50 µM; IC50 [14]: > 50 µM |
| C[C@@H]1C[C@H]2[C@@H]3CCC4=CC(=O)C=C[C@]4(C)[C@@]3(F)[C@@H](O)C[C@]2(C)[C@@]1(O)C(=O)CO [DEXAMETHASONE] | 1.7 | > 50 | 0 | 4 | 0 | > 50 | > 50 | > 50 | IC50 [13]: > 50 µM; IC50 [14]: > 50 µM |
| C[C@H]1O[C@@H](O[C@H]2[C@@H](O)C[C@H](O[C@H]3[C@@H](O)C[C@H](O[C@H]4CC[C@@]5(C)[C@H](CC[C@@H]6[C@@H]5C[C@@H](O)[C@]5(C)[C@@H](C7=CC(=O)OC7)CC[C@]65O)C4)O[C@@H]3C)O[C@@H]2C)C[C@H](O)[C@@H]1O [DIGOXIN] | – | > 50 | – | – | – | > 50 | > 50 | > 50 | – |
| CC[C@H]1OC(=O)[C@H](C)[C@@H](O[C@H]2C[C@@](C)(OC)[C@@H](O)[C@H](C)O2)[C@H](C)[C@@H](O[C@@H]2O[C@H](C)C[C@H](N(C)C)[C@H]2O)[C@](C)(O)C[C@@H](C)C(=O)[C@H](C)[C@@H](O)[C@]1(C)O [ERYTHROMYCIN] | 2.5 | – | – | 4 | – | – | > 50 | – | IC50 (Cytochrome P450 3A4 [11]): 33 µM |
| COc1cc([C@@H]2c3cc4c(cc3[C@@H](O[C@@H]3O[C@@H]5CO[C@@H](C)O[C@H]5[C@H](O)[C@H]3O)[C@H]3COC(=O)[C@H]23)OCO4)cc(OC)c1O [ETOPOSIDE] | 0.6 | > 50 | – | -0.2 | – | > 50 | – | – | – |
| CCC(C)n1ncn(-c2ccc(N3CCN(c4ccc(OCC5COC(Cn6cncn6)(c6ccc(Cl)cc6Cl)O5)cc4)CC3)cc2)c1=O (centres undefined) [ITRACONAZOLE] | – | – | – | – | 2 | – | – | 0.2 | – |
| CCC(C)n1ncn(-c2ccc(N3CCN(c4ccc(OC[C@H]5CO[C@](Cn6cncn6)(c6ccc(Cl)cc6Cl)O5)cc4)CC3)cc2)c1=O (some centres undefined) [ITRACONAZOLE] | 6.5 | – | 2 | 18 | – | – | 0.2 | – | – |
| COCC(=O)O[C@]1(CCN(C)CCCc2nc3ccccc3[nH]2)CCc2cc(F)ccc2[C@@H]1C(C)C [MIBEFRADIL] | – | 10 | 60 | 8.9 | 60 | 10 | 7.4 | 7.4 | logP [1]: 6.2 |
| Clc1ccc(COC(Cn2ccnc2)c2ccc(Cl)cc2Cl)c(Cl)c1 (centres undefined) [MICONAZOLE] | 5.8 | – | 22 | 1 | 22 | – | 7.8 | 7.8 | – |
| Cc1ncc2n1-c1ccc(Cl)cc1C(c1ccccc1F)=NC2 [MIDAZOLAM] | 3.3 | 33 | 12 | 6 | 12 | 33 | > 50 | > 50 | IC50 [13]: > 50 µM; IC50 [14]: > 50 µM |
| COC(=O)C1=C(C)NC(C)=C(C(=O)OCCN(C)Cc2ccccc2)C1c1cccc([N+](=O)[O-])c1 (centres undefined) [NICARDIPINE] | 5.5 | 8 | – | 18 | 100 | 8 | 2.5 | 2.5 | – |
| CC1(C)S[C@@H]2[C@H](NC(=O)Cc3ccccc3)C(=O)N2[C@H]1C(=O)O [PENICILLIN G] | – | – | – | – | – | – | – | – | Ratio [8]: 1.1 |
| O=c1[nH]c2ccccc2n1C1CCN(CCCC(c2ccc(F)cc2)c2ccc(F)cc2)CC1 [PIMOZIDE] | – | > 50 | 37 | 11 | 37 | > 50 | – | – | – |
| C=C[C@H]1C[N@@]2CC[C@H]1C[C@@H]2[C@@H](O)c1ccnc2ccc(OC)cc12 [QUINIDINE] | 2.8 | 10 | – | 20 | – | 10 | 13 | 13 | – |
| CN/C(=C\[N+](=O)[O-])NCCSCc1ccc(CN(C)C)o1 [RANITIDINE] | 0.6 | > 50 | 0 | -2.4 | – | – | > 50 | – | IC50 [13]: > 50 µM |
| CNC(=C[N+](=O)[O-])NCCSCc1ccc(CN(C)C)o1 [RANITIDINE] | – | – | – | – | 0 | > 50 | – | > 50 | IC50 [14]: > 50 µM |
| CC(C)c1nc(CN(C)C(=O)N[C@H](C(=O)N[C@@H](Cc2ccccc2)C[C@H](O)[C@H](Cc2ccccc2)NC(=O)OCc2cncs2)C(C)C)cs1 [RITONAVIR] | 4.9 | – | – | – | – | – | – | – | – |
| CC(C)(C)c1ccc(C(O)CCCN2CCC(C(O)(c3ccccc3)c3ccccc3)CC2)cc1 (centres undefined) [TERFENADINE] | 5.7 | 2 | – | 0.4 | – | 2 | – | – | – |
| CC[C@]1(O)C[C@@H]2CN(CCc3c([nH]c4ccccc34)[C@@](C(=O)OC)(c3cc4c(cc3OC)N(C)[C@H]3[C@@](O)(C(=O)OC)[C@H](OC(C)=O)[C@]5(CC)C=CCN6CC[C@]43[C@@H]65)C2)C1 [VINBLASTINE] | – | 8 | 75 | 33 | 75 | 8 | > 50 | > 50 | logP [1]: 5.2 |
| IVERMECTIN | – | – | 34 | -3.4 | 34 | – | – | – | logP [1]: 4; IC50 ([2]; llc-pk1): 0.5 µM; IC50 ([13]; llc-pk1): 0.1 µM; IC50 ([9]; llc-pk1): 0.5 µM; IC50 ([10]; llc-pk1): 0.5 µM; IC50 ([14]; llc-pk1): 0.1 µM; IC50 ([6]; llc-pk1): 0.5 µM; IC50 (Cytochrome P450 3A4 [15]): > 50 µM |
